Patent publication US11406719B2, “Dichromic fluorescent compounds” (Washington University, priority 2008, dated 2022)
Like-named read-outs stand apart in the source and are kept apart here. Marks after values point to notes of the source that are not given here.

Assays:
[1] = Steady-state absorption and fluorescence properties (spectra, quantum yield, 700/800 nm emission); format: physicochemical; conditions: for fluorescence quantum yield: relative to ICG
Procedure: The polymethine dyes and their derivatives were dissolved in […] of DMSO as stock solutions. To prevent inner effect in the fluorescent measurements, aliquots […] were diluted with the solvent of interest until the absorbance at the excitation wavelength was 0.15. UV-Vis spectra were obtained on Beckman Coulter DU 640 UV-Vis spectrometer (Beckman Coulter, Inc., Fullerton, Calif.). Emission spectra were recorded on a Fluorolog-3 spectrofluorometer (HORIBA Jobin Yvon Inc., Edison, N.J.).
Fluorescent spectra were recorded by using 620 nm and 720 nm excitation wavelengths. Fluorescent quantum yield was measured at 720 nm with slits width of 5 nm for both excitation and emission. The fluorescence quantum yield of ICG in DMSO (Ψ=0.12) was used as a reference standard. All measurements were conducted at room temperature. Excitation scans were performed in the range of 500-720 nm with monitoring at 735 nm fluorescence intensity, and 600-815 nm with monitoring at 830 nm. Excitation scans were corrected by lamp intensity using the equation F=S/R.
The ratios of the 700 nm and 800 nm emission peaks were examined in different environments and simulated dilute conditions (e.g., binding to albumin). For this, the fluorescence behavior of compound 3 was determined in different solvents (i.e., methanol, water, and DMSO), pH levels (i.e., 2.5 and 10), and in the presence of albumin (which binds the dyes in its drug binding pocket). The spectral analysis was conducted as described above in Example 2. Spectra at pH 2.5 and 10.0 were obtained by titrating 20% DMSO/water solution with diluted aqueous HCl and NaOH.

[2] = DMSO; excitation 773 nm; emission 820 nm; from Berezin et al., 2007; cited from earlier work
[3] = Fluorescence lifetime by time correlated single photon counting (TCSPC); format: physicochemical; conditions: for Lifetime at 700 nm (ns): excitation 650 nm, emission 700 nm
Procedure: Fluorescence lifetime (FLT) was measured using time correlated single photon counting (TCSPC) technique with excitation sources NanoLed® (HORIBA Jobin Yvon Inc.) at 700 nm and 773 nm and impulse repetition rate of 1 MHz at 90° to a R928P detector (Hamamatsu Photonics, Japan). The detector was set to either 750 nm (for Nanoled 700 nm) or for 820 nm (for Nanoled 773 nm) with a 20 nm bandpass. The electrical signal was amplified by TB-02 pulse amplifier (HORIBA Jobin Yvon Inc.) and the amplified signal was fed to the constant fraction discriminator CFD (Philips, Netherlands). The first detected photon represented the start signal by the time-to-amplitude converter (TAC) and the excitation pulse triggered the stop signal. The multi-channel analyzer (MCA) recorded repetitive start-stop signals from the TAC and generated a histogram of photons as a function of time-calibrated channels (6.878 ps/channel) until the peak signal reached 10,000 counts. The lifetime was recorded on a 50 ns scale. The instrument response function was obtained by using Rayleigh scatter of Ludox-40 (Sigma-Aldrich, St. Louis, Mo.) (0.03% in Milli-Q water) in a quartz cuvette at either 700 nm or 773 nm emission. DAS6 v6.1 decay analysis software (HORIBA Jobin Yvon Inc.) was used for lifetime calculations. The goodness of fit was judged by χ^2 values and Durbin-Watson parameters and visual observations of fitted line, residuals and autocorrelation function

[4] = cited from earlier work
[5] = In vivo dichromic fluorescence imaging of mouse ears; design: species or system nude mouse; conditions: 2 nmol intravenously
Text: To assess the retention of dichromic fluorescence in vivo, 2 nmol of symmetrical ICG (compound 2) and nonsymmetrical cypate-S (compound 3) were each injected intravenously in a nude mouse. Mouse ears were imaged with a Li-Cor Odyssey system at two excitation (680 nm and 780 nm) and emission (700 and 800 nm) channels. […] Thus, the dual fluorescence contrast mechanism is tenable in vivo.

A549 cells = assay: Two-channel imaging of fluorescence enhancement of A549 cells; format: cell-based, human; conditions: 1 μM
Procedure: It was hypothesized that since cypate diserine could be phosphorylated in cells, it is possible that the initial phosphorylation of one serine (as indicated by an increase in the 700 nm channel) could be followed by phosphorylation of the second serine. […] To test this notion, A549 cells were incubated with of 1 μM of compound 6.

casein kinase II = assay: Kinase-Glo Luminescent Kinase Assay; format: cell-based; conditions: A549 cells
Procedure: The following example was designed to further explore the use of cypate diserine (6) to monitor the activity of endogenous kinases. A549 cells (which express casein kinase II) were incubated with a standard casein kinase II peptide substrate or compound 6 (which is not specific for casein kinase II). Kinase activity was measured with the Kinase-Glo Luminescent Kinase Assay Platform (Promega Corp., Madison, Wis.) per the manufacturer's instructions. This assay measures free ATP in the reaction mixture. As phosphorylation increases, the levels of ATP decrease, and consequently, luminescence is inversely proportional to kinase activity.

caspase-3 [6] = target: T1, caspase-3 (Homo sapiens, UniProt P42574); design: purchased CalBiochem; conditions: read-out: KM of the standard; cited from earlier work
T1 sequence (P42574 29-175 limits assumed): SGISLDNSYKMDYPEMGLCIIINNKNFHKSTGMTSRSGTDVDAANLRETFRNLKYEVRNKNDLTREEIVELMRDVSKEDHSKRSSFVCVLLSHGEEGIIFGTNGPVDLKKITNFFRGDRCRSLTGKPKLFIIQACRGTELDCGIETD
T1 sequence (P42574 176-277 limits assumed): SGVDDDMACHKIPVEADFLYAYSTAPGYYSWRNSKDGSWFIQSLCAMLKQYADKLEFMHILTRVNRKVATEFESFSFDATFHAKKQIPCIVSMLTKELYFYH

caspase-3 [7] = target: T1, caspase-3; assay: Enzyme kinetics of NIR caspase-3 probe; format: biochemical; design: purchased CalBiochem; conditions: non-linear fit; 37° C.
Procedure: To examine the kinetics, a caspase-3 substrate was prepared using the standard FRET method where the tetrapeptide Asp-Glu-Val-Asp (DEVD—SEQ ID NO:4) was flanked by two cypate dyes (cypate-DEVD (SEQ ID NO:4) probe). Enzyme assays were performed with a fluorometer by using commercially available recombinant caspase-3 (CalBiochem). An aliquot of the cypate-DEVD (SEQ ID NO:4) probe (substrate concentrations ranged from 70 nM to 100 μM) was dissolved in DMSO and added to a buffer comprising 10 mM PIPES, pH 7.4, 2 mM EDTA, 0.1% CHAPS, and 5 mM DTT. Five units of the enzyme were added, and the assay was performed at 37° C. A control experiment under the same conditions but with no enzyme was conducted at the same time. The apparent Km for the cypate-DEVD (SEQ ID NO:4) probe for caspase-3 was calculated with the Cheng-Prusoff equation: […], where [S] is the concentration of substrate and Ki is the published inhibitory constant of DEVD (SEQ ID NO:4)-CHO. To generate EC50 values, initial rates were determined from the linear portion of substrate hydrolysis and were plotted against log-inhibitor concentration (DEVD (SEQ ID NO:4)-CHO). The apparent kcat values were calculated using the equation kcat=V(Km+[S])/[Et][S], where [S] is the concentration of substrate, [E] is the concentration of enzyme, and Vis the initial rate of cleavage. […]

caspase-3 [8] = target: T1, caspase-3; assay: In vivo imaging of caspase-3 activity in mouse ears; design: species or system nude mouse; conditions: 2 nmol intravenously; caspase-3-injected ear relative to saline-injected ear
Procedure: To assess the NIR optical imaging of caspase-3 activity, 2 nmol of the pre-quenched (FRET) cypate-DEVD (SEQ ID NO:4) probe was injected intravenously in a nude mouse, followed by intradermal injection of caspase-3 solution (right pinna) or saline (left pinna). This approach provides positive and negative controls in one set of experiments. Mouse ears were imaged with Li-Cor Odyssey single-channel (805 nm) NIR imaging system (Li-Cor Biosciences, Lincoln, Neb.). Images were captured before treatment, after injection of a probe and after intradermal injection of caspase-3 in the ear.

Question: Which “contribution of the 700 nm emission in the overall fluorescence spectra” value (shortened to “contribution of the 700 nm emission”) [1] does the source give for `CC1(C)C(/C=C/C=C/C=C/C=C2/N(CCC(=O)O)c3ccc4ccccc4c3C2(C)C)=[N+](CCC(=O)[O-])c2ccc3ccccc3c21` [Compound 1, cypate, reference compound] here?
Answer: 18%

Question: What about the “Lifetime at 800 nm (ns)” value [2] of the same compound?
Answer: 0.87^c ns

Question: And the “Lifetime at 700 nm (ns)” value ([3]; DMSO)?
Answer: Weak signal

Question: What about the “fluorescence lifetime at 800 nm” value ([3]; in DMSO) of the same compound?
Answer: 0.86 ns

Question: With `CC1(C)C(/C=C/C=C/C=C/C=C2/N(CCCCS(=O)(=O)O)c3ccc4ccccc4c3C2(C)C)=[N+](CCCCS(=O)(=O)[O-])c2ccc3ccccc3c21` [Compound 2, indocyanine green, reference compound] as the compound, how does the “contribution of the 700 nm emission” value [1] read?
Answer: 24%

Question: What about the “Lifetime at 800 nm (ns)” value [2] of the same compound?
Answer: 0.97^c ns

Question: What about the “Lifetime at 700 nm (ns)” value ([3]; DMSO) of the same compound?
Answer: 1.50^d ns

Question: What about the “fluorescence quantum yield (reference standard)” value ([4]; in DMSO) of the same compound?
Answer: 0.12

Question: What about the “fluorescence quantum yield (reference)” value ([4]; in methanol) of the same compound?
Answer: 0.090

Question: What about the “visibility of blood vessels in the 700 and 800 nm channels” value [5] of the same compound?
Answer: showed the blood vessels only at the 800 nm channel

Question: Which results are given for `CC1(C)C(/C=C/C=C/C=C/C=C2\N(CCC(=O)NC(CO)C(=O)O)c3ccc4ccccc4c3C2(C)C)=[N+](CCC(=O)NC(CO)C(=O)O)c2ccc3ccccc3c21` (stereo not drawn) [Compound 6, di-serine cypate]?
Answer: fluorescence in the 700 nm and 800 nm emission channels (A549 cells; 5 and 15 minutes): early fluorescence increase in the 700 nm emission channel; fluorescence in the 700 nm and 800 nm emission channels (A549 cells; 30 and 45 minutes): fluorescence enhancement in both channels; luminescence (inversely proportional to kinase activity) (casein kinase II): concentration-dependent decreases in luminescence; molar absorption coefficient ([1]; methanol): about 220,000 M^−1 cm^−1; ratio of the 700/800 nm emission peaks ([1]; methanol): 0.36; fluorescence quantum yield ([1]; methanol): 0.059

Question: For `CC1(C)C(/C=C/C=C/C=C/C=C2\N(CCC(=O)NC(COP(=O)(O)O)C(=O)O)c3ccc4ccccc4c3C2(C)C)=[N+](CCC(=O)NC(CO)C(=O)O)c2ccc3ccccc3c21` (stereo not drawn) [Compound 7, monophosphoserine/serine cypate derivative], which “increase of the 700/800 nm ratio relative to symmetrical compound 6” value ([1]; methanol) is on record?
Answer: 7 fold

Question: What about the molar absorption coefficient ([1]; methanol) of the same compound?
Answer: about 220,000 M^−1 cm^−1

Question: What about the “ratio of the 700/800 nm emission peaks” value ([1]; methanol) of the same compound?
Answer: 2.5

Question: What about the fluorescence quantum yield ([1]; methanol) of the same compound?
Answer: 0.057

Question: Which Km (caspase-3 [6]) does the source give for Ac-DEVD-pNA [Ac-DEVD (SEQ ID NO:4)-pNA] here?
Answer: 11 µM

Question: Which results are given for “cypate-DEVD (SEQ ID NO:4) probe: caspase-3 FRET substrate: tetrapeptide Asp-Glu-Val-Asp flanked by two cypate dyes”?
Answer: Km (caspase-3 [7]): 15 ± 3 µM; kcat (caspase-3 [7]): 1.02 ± 0.06 s⁻¹; magnitude and area of increase of fluorescence intensity (805 nm) (caspase-3 [8]): significantly greater in the caspase-3-injected ear

Question: For cypate-NH2 [Compound 4], which “contribution of the 700 nm emission” value [1] is on record?
Answer: 82%

Question: And the “Lifetime at 700 nm (ns)” value ([3]; DMSO)?
Answer: 1.40 ns

Question: And the “Lifetime at 800 nm (ns)” value ([3]; DMSO, excitation 773 nm, emission 820 nm)?
Answer: 0.90 ns
